pIC50: −log10 of the molar value.
Experiments:
Candida krusei CCMM L10 = assay: Drop plate method assay, antifungal activity; format: cell-based; parameters: key: high activity (++); Medium activity (+); no activity(-); details: 10 µl of 1 mg/ml in DMSO dropped on seeded agar plate, read after approximately 10-16 h
Experimental: (§1) A drop plate method assay (Alajlani, M.; et al. Chromatographia 2016, 79, 1527-1532.) with modification was performed to detect the antimicrobial and antifungal activity against the Gram positive bacteria Arthrobacter aurescens and the yeast strain Candida krusei. All compounds were dissolved in DMSO to a concentration of 1 mg/ml. Using sterile micropipette 10 µl of each compound was directly but gently dropped over seeded agar plate with test organism. The liquid was allowed to diffuse before the plate was inverted and incubated. The growth conditions for every strain was considered. The results were noted when a lawn of the indicator organism appeared on the plate (approximately 10-16 h). The magnitude of activity was noted as high activity (++), Medium activity (+),and no activity(-). Table 2: Antimicrobial and antifungal activities of compounds were detected over the test organisms.

[1] = system: Arthrobacter aurescens DSM20116; assay: Drop plate method assay, antimicrobial activity; format: cell-based; parameters: key: high activity (++); Medium activity (+); no activity(-); details: 10 µl of 1 mg/ml in DMSO dropped on seeded agar plate, read after approximately 10-16 h
Experimental: as §1

L-6 cells = assay: cells; format: cell-based, rat; details: for pIC50: Rattus norvegicus, L6, cytotoxicity against L-6 cells, 70 h + 2 h incubation with Alamar Blue
Experimental: Assays were performed in 96-well microtiter plates, each well containing 100 µl of RPMI 1640 medium supplemented with 1% L-glutamine (200 mM) and 10% fetal bovine serum, and 4000 L-6 cell, a primary cell line derived from rat skeletal myoblasts (Page, C.; et al. J. Oncol. 1993, 3, 473-476; Ahmed, S. A.; Gogal, R. M.; et al. J. Immunol. Methods 1994, 170 211-224).
Serial drug dilutions of eleven 3-fold dilution steps covering a range from 100 to 0.002 µg/ml were prepared. After 70 hours of incubation the plates were inspected under an inverted microscope to assure growth of the controls and sterile conditions. 10 µl of Alamar Blue was then added to each well and the plates incubated for another 2 hours. Then the plates were read with a Spectramax Gemini XS microplate fluorometer (Molecular Devices Cooperation, USA) using an excitation wave length of 536 nm and an emission wave length of 588 nm. The IC50 values were calculated by linear regression (Huber, W.; et al. Acta Trop. 1993, 55, 257-261.) from the sigmoidal dose inhibition curves using SoftmaxPro software (Molecular Devices Cooperation, USA). Podophyllotoxin (Sigma P4405) was used as control. Table 1: Results for cytotoxicity against L-6 cells expressed as IC50 values (µM)

Row | SMILES | magnitude of activity, Candida krusei CCMM L10 (Candida krusei CCMM L10) | magnitude of activity, Arthrobacter aurescens DSM20116 [1] | pIC50 (L-6 cells) | IC50 for cytotoxicity relative to the investigated concentration (L-6 cells)
1 | CC(C)=C/C(=C\C=NS(=O)(=O)c1ccc(Cl)cc1)N1CCCCC1 [Example 5, (2E)-4-Chloro-N-[5-methyl-3-(piperidin-1-yl)hexa-2,4-dien-1-ylidene]benzenesulfonamide] | + | ++ |  | 
2 | CC(C)=C/C(=C\C=NS(=O)(=O)c1ccc([N+](=O)[O-])cc1)N1CCCCC1 [Example 2, (2E)-N-{5-Methyl-1-[(4-nitrophenyl)sulfonylimino]hexa-2,4-dien-3-yl}piperidin-1-ium chloride] |  |  | 3.69 | 
3 | CC(C)=C/C(=C\C=NS(=O)(=O)c1ccccc1)N1CCCC1 [Example 6, 2(E)-N-[5-Methyl-3-(pyrrolidin-1-yl)hexa-2,4-dien-1-ylidene]benzenesulfonamide] | + | ++ |  | 
4 | CC(C)=C/C(=C\C=NS(=O)(=O)c1ccccc1)N(C)C [Example 7, (2E)-N-(3-Dimethylamino-5-methylhexa-2,4-dien-1-ylidene)benzenesulfonamide] | + | ++ |  | 
5 | CC(C)=C/C(=C\C=NS(=O)(=O)c1ccc([N+](=O)[O-])cc1)N1CCCC1.Cl [Example 3, (2E)-N-{5-Methyl-1-[(4-nitrophenyl)sulfonylimino]hexa-2,4-dien-3-yl}pyrrolidine-1-ium chloride] | + | ++ | 3.60 | 100 times
6 | CC(C)=C/C(=C\C=NS(C)(=O)=O)N1CCCCC1 [Example 10, (2E)-N-[5-Methyl-3-(piperidin-1-yl)hexa-2,4-dien-1-ylidene]methanesulfonamide] | + | ++ |  | 
7 | CC(C)=C/C(=C\C=NS(=O)(=O)c1ccc(C)cc1)N1CCCC1 [Example 8, (2E)-4-Methyl-N-[5-methyl-3-(pyrrolidin-1-yl)hexa-2,4-dien-1-ylidene]benzenesulfonamide] | + | ++ |  | 

Source: patent EP4043434A1, “NOVEL SULFONYLIMINES” (Karl-Franzens-Universität Graz, priority 2021, dated 2022)
